Data on three compounds can be found in ChEMBL document CHEMBL5465560, “Selectivity Literature for EUbOPEN Chemogenomic Library” (2024).

Experiment [1] concerns the target T1, Tyrosine-protein kinase Mer (Homo sapiens) (UniProt Q12866).
T1 sequence (whole entry): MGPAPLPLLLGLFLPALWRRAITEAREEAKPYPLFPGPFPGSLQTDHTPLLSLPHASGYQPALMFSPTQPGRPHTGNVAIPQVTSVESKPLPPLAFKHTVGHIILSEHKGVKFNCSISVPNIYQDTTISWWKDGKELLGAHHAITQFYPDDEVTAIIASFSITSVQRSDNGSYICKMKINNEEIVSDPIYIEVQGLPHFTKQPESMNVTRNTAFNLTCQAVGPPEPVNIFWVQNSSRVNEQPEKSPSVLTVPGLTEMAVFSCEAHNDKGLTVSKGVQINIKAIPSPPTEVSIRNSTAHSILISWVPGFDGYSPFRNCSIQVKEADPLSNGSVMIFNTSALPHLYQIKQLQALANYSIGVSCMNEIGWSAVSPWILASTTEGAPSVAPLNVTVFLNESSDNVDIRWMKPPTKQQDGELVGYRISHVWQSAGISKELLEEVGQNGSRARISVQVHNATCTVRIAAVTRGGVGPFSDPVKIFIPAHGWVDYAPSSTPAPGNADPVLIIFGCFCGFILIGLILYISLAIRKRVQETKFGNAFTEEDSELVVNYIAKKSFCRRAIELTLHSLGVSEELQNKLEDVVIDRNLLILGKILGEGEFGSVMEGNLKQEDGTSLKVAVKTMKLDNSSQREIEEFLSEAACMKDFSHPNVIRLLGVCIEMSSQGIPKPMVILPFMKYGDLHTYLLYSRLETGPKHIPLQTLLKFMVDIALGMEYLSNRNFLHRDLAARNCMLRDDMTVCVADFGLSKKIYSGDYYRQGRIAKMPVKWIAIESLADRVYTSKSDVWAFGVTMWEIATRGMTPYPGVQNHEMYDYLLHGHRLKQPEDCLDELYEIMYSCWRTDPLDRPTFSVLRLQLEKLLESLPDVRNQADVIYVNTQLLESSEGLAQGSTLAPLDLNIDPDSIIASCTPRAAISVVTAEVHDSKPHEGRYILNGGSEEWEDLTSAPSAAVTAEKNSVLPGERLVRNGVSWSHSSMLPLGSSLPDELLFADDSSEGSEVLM
Description: Selectivity interaction (KinomeScan (DiscoverX)) EUB0000607a MERTK. The note with it: at 10 µM.

The target in experiment [2] is T2, MAP/microtubule affinity-regulating kinase 4 (Homo sapiens) (UniProt Q96L34).
T2 sequence (whole entry): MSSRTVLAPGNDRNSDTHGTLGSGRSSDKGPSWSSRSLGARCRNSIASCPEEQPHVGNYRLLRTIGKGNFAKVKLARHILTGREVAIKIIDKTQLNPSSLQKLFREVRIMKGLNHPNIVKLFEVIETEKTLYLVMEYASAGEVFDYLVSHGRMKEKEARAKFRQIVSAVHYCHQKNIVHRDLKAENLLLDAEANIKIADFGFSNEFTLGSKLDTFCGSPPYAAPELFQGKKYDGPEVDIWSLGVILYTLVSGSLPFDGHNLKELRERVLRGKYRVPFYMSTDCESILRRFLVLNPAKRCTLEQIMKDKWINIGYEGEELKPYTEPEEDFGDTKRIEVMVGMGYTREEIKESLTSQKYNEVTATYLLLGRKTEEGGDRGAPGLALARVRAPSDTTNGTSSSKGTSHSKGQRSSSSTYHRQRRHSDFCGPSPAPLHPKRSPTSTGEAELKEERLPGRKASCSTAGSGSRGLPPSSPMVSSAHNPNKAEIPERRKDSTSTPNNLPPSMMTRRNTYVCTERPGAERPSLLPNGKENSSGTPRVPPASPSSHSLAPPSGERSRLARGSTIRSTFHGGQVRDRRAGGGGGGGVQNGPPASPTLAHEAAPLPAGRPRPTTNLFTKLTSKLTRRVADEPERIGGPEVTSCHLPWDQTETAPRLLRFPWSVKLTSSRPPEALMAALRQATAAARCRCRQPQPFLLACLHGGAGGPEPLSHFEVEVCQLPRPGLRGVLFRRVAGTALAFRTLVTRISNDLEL
Description: Selectivity interaction (ActivX KiNativ screen (kinase selectivity in THP-1 cell lysates)) EUB0000639a MARK4. In kind it is subcellular. The settings on record: lysate, at 0.2 µM.

In experiment [3] the target is T3, Serine/threonine-protein kinase TAO3 (Homo sapiens) (UniProt Q9H2K8).
T3 sequence (whole entry): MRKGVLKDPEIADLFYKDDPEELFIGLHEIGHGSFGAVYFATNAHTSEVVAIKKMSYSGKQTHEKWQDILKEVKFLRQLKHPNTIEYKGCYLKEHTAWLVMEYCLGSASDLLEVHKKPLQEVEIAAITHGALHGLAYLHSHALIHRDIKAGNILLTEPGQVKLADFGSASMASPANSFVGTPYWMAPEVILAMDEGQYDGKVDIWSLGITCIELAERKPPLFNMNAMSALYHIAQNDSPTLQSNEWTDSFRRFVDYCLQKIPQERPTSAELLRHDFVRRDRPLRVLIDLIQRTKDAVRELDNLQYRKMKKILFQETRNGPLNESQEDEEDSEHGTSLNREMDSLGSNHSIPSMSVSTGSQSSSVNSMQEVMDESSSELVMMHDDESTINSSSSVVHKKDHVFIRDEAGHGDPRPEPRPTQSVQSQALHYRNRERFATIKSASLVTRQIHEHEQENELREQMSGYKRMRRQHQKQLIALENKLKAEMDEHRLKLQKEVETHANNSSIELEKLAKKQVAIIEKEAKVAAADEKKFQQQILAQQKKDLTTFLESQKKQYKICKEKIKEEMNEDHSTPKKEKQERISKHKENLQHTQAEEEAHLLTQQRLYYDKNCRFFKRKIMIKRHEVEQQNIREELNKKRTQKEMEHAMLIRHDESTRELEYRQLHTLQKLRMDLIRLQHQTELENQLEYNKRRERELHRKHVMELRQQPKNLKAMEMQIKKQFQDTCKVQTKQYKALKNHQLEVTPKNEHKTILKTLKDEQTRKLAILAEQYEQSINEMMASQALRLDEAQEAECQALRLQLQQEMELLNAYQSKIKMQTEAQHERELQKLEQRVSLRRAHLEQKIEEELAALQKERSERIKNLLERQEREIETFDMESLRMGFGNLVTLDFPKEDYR
Put plainly: Selectivity interaction (KinomeScan (DiscoverX)) EUB0000229b TAOK3. The note with it: at 10 µM.

Structures are written as SMILES.

`CNC(=O)Nc1ccc(-c2nc(N3CC4CCC(C3)O4)c3cnn(C4CCC5(CC4)OCCO5)c3n2)cc1` yielded a % of control in experiment [1] of 87%.
Take `CC[C@@H]1[C@H](F)C(=O)N[C@@H]1COc1nccc2cc(C(N)=O)c(OC)cc12` [ZIMLOVISERTIB]: the % of inhibition in experiment [2] stood at 13.2%.
In experiment [3], `COc1cc(N(C)c2ccnc3ccc(C(F)(F)F)cc23)cc(OC)c1OC` registered a % binding of 80%.
